Laboratory results from patent US8106086B2, “Indoledione derivative” (MSD K.K., priority 2007, dated 2012).

Columns and labels:
human LCE = target: T1, human LCE (Homo sapiens, UniProt Q9H5J4); test: LCE enzyme activity inhibition test; type: biochemical; details: palmitoyl CoA and [14C]-malonyl CoA, 37° C. for 90 minutes
T1 sequence (Q9H5J4 1-265): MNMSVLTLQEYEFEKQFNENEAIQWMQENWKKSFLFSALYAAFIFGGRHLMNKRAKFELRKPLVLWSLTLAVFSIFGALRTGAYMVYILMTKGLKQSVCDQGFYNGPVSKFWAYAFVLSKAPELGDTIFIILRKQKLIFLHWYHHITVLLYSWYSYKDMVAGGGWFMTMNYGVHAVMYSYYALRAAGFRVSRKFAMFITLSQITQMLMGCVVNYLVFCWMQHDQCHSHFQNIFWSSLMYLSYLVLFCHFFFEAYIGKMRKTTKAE
Description: The LCE enzyme activity inhibition test was carried out according to a modification of the method of Moon et al., J. Biol. Chem., Vol. 276, pp. 45358 to 45366 (2001). Namely, 1.0 μl of the diluted test compound was added to each well of a 96-well assay plate (Corning, 96-Well Assay Block). Next, 50 μl of a phosphate buffer solution (100 mM potassium phosphate buffer solution, pH 6.5) and 25 μl of a substrate solution (in 100 mM potassium phosphate buffer solution (pH 6.5), 4.0 μM rotenone, 80 μM fatty acid-free bovine serum albumin, 160 μM palmitoyl CoA, 80 μM malonyl CoA, 3.5 μM [^14C]-malonyl CoA (1.92 GBq/mmol, manufactured by Amersham) were added to each well. Further, 25 μl of an enzyme solution (in 100 mM potassium phosphate buffer solution (pH 6.5), 100 μg/ml human LCE) was added thereto. Then, the upper side of the plate was sealed up, and the plate was incubated with gently stirring at 37° C. for 90 minutes. Subsequently, 100 μl of 5 N HCl was added to each well. The reaction was ceased by stirring the assay plate at room temperature for 5 minutes and acyl CoA was hydrolyzed. Subsequently, the enzyme reaction solution in each well was adsorbed by each well of a 96-well GF/C filter plate (Perkin Elmer Unifilter 96GF/C) through which water had been preliminarily passed. After washing each well with water to remove unabsorbed malonyl CoA, the GF/C filter plate was dried at 50° C. for 60 minutes. Next, 30 μl of a scintilator (Perkin Elmer, Microschinti 0) was added to each well and the upper side of the plate was sealed up. The radioactivity of the thus fixed [^14C] was measured with a microplate scintillation counter (Perkin Elmer, Topcount) and the obtained value was referred to as the enzyme activity. The human LCE enzyme inhibition activity of the test compound was calculated, based on the radioactivity of the well containing test compound-free DMSO as a control.

[1] = target: T2, intracellular LCE in H2.35 cells originating in mouse liver (Mus musculus, UniProt Q920L5); test: Intracellular LCE activity inhibition test; type: cell-based; details: [14C]-palmitoyl CoA, C18/C16 ratio by radio HPLC
T2 construct: endogenous in cells; host or cells: H2.35 mouse liver cells
T2 sequence (Q920L5 1-267): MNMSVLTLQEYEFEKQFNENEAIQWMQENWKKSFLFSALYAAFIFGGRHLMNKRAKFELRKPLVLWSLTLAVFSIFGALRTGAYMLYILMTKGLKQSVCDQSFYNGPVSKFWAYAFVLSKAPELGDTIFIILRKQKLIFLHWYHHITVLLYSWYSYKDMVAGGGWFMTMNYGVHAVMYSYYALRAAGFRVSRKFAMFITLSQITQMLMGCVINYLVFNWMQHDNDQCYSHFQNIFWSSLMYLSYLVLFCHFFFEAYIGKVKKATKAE
Description: Cultured H2.35 cells originating in mouse liver were maintained in DMEM (GIBCO) containing 4% calf serum and 200 nM dexamethasone and cultured at 33° C. in the presence of 5% CO2. About 2.5×10^5 H2.35 cells were pipetted into a 24-well cell culture plate (Corning, 24-Well Cell Culture Cluster) and cultured overnight at 33° C. in the presence of 5% CO2. […] After culturing for 1 hour at 33° C. in the presence of 5% CO2, [^14C]-palmitoyl CoA (2.13 GBq/mmol, manufactured by Perkin Elmer) was added to each well and culture was conducted for additional 4 hours at 33° C. in the presence of 5% CO2. Next, each well was washed with ice-cooled phosphate-buffered physiological saline and 250 μl of 2M sodium hydroxide was added to cease the reaction. Then, the reaction solution in each well was transferred into a glass test tube and incubated at 70° C. for 1 hour. After adding 100 μl of a 5N hydrogen chloride solution, fatty acids were extracted with petroleum ether. Then [^14C]-labeled fatty acids were quantified by radio HPLC and the ratio of the amount of fatty acids having carbon chains consisting of 18 carbon atoms to the amount of those having carbon chains consisting of 16 carbon atoms (C18/C16 ratio) was calculated. The intracellular LCE inhibition activity of the test compound was calculated, based on the C18/C16 ratio of the well containing test compound-free DMSO as a control.

[2] = activity of the optically resolved components of Production Example 1 (test not stated); details: fractions from optical resolution on CHIRALPAK AD-H

| SMILES | IC50 (human LCE) | IC50 [1] | identified as being active [2] |
| --- | --- | --- | --- |
| Cc1[nH]n(-c2ccc(C(C)(C)C)cc2)c(=O)c1C1(C(F)(F)F)C(=O)N(c2ccccc2)C2=C1C(=O)CC(C)(C)C2 (centres unmarked) [Production Example 35, 3-[1-(4-tert-butylphenyl)-2,5-dihydro-3-methyl-5-oxo-1H-pyrazol-4-yl]-3,5,6,7-tetrahydro-6,6-dimethyl-1-phenyl-3-trifluoromethyl-1H-indole-2,4-dione] | 15 nM | 4.2 nM |  |
| Cc1[nH]n(-c2ccc(C(F)(F)F)cc2)c(=O)c1C1(C(F)(F)F)C(=O)N(c2ccccc2)C2=C1C(=O)CC(C)(C)C2 (centres unmarked) [Production Example 29, 3-[2,5-dihydro-3-methyl-5-oxo-1-(4-trifluoromethylphenyl)-1H-pyrazol-4-yl]-3,5,6,7-tetrahydro-6,6-dimethyl-1-phenyl-3-trifluoromethyl-1H-indole-2,4-dione] | 23 nM | 1.2 nM |  |
| Cc1[nH]n(-c2ccc(S(C)(=O)=O)cc2)c(=O)c1C1(C(F)(F)F)C(=O)N(c2ccccc2)C2=C1C(=O)CC(C)(C)C2 (centres unmarked) [Production Example 44, 3-[2,5-dihydro-3-methyl-(4-methylsulfonylphenyl)-5-oxo-1H-pyrazol-4-yl]-3,5,6,7-tetrahydro-6,6-dimethyl-1-phenyl-3-trifluoromethyl-1H-indole-2,4-dione] | 8.9 nM | 7 nM |  |
| Cc1[nH]n(-c2ccc(OC(C)C)cc2)c(=O)c1C1(C(F)(F)F)C(=O)N(c2ccccc2)C2=C1C(=O)CC(C)(C)C2 (centres unmarked) [Production Example 40, 3-[2,5-dihydro-1-(4-isopropoxyphenyl)-3-methyl-5-oxo-1H-pyrazol-4-yl]-3,5,6,7-tetrahydro-6,6-dimethyl-1-phenyl-3-trifluoromethyl-1H-indole-2,4-dione] | 30 nM | 38 nM |  |
| Cc1[nH]n(-c2ccc(OC(F)(F)F)cc2)c(=O)c1C1(C(F)(F)F)C(=O)N(c2ccccc2)C2=C1C(=O)CC(C)(C)C2 (centres unmarked) [Production Example 36, 3-[2,5-dihydro-3-methyl-5-oxo-1-(4-trifluoromethoxyphenyl)-1H-pyrazol-4-yl]-3,5,6,7-tetrahydro-6,6-dimethyl-1-phenyl-3-trifluoromethyl-1H-indole-2,4-dione] |  | 0.6 nM |  |
| Cc1[nH]n(-c2ccc(C#N)cc2)c(=O)c1C1(C(F)(F)F)C(=O)N(c2ccccc2)C2=C1C(=O)CC(C)(C)C2 (centres unmarked) [Production Example 31, 3-[1-(4-cyanophenyl)-2,5-dihydro-3-methyl-5-oxo-1H-pyrazol-4-yl]-3,5,6,7-tetrahydro-6,6-dimethyl-1-phenyl-3-trifluoromethyl-1H-indole-2,4-dione] |  | 5.4 nM |  |
| COc1ccc(-n2[nH]c(C)c(C3(C(F)(F)F)C(=O)N(c4ccccc4)C4=C3C(=O)CC(C)(C)C4)c2=O)cc1 (centres unmarked) [Production Example 26, 3-[2,5-dihydro-1-(4-methoxyphenyl)-3-methyl-5-oxo-1H-pyrazol-4-yl]-3,5,6,7-tetrahydro-6,6-dimethyl-1-phenyl-3-trifluoromethyl-1H-indole-2,4-dione] |  | 3.1 nM |  |
| Cc1[nH]n(-c2ccc(-c3ccccc3)cc2)c(=O)c1C1(C(F)(F)F)C(=O)N(c2ccccc2)C2=C1C(=O)CC(C)(C)C2 (centres unmarked) [Production Example 42, 3-[2,5-dihydro-3-methyl-5-oxo-1-(biphenyl-4-yl)-1H-pyrazol-4-yl]-3,5,6,7-tetrahydro-6,6-dimethyl-1-phenyl-3-trifluoromethyl-1H-indole-2,4-dione] | 22 nM | 25 nM |  |
| Cc1[nH]n(-c2ccccc2)c(=O)c1C1(C(F)(F)F)C(=O)N(c2ccccc2)C2=C1C(=O)CC(C)(C)C2 (centres unmarked) [3-(2,5-dihydro-3-methyl-5-oxo-1-phenyl-1H-pyrazol-4-yl)-3,5,6,7-tetrahydro-6,6-dimethyl-1-phenyl-3-trifluoromethyl-1H-indole-2,4-dione] |  |  | active |
